According to paper PMC4786809, “Determination of cyanidin 3-glucoside in rat brain, liver and kidneys by UPLC/MS-MS and its application to a short-term pharmacokinetic study” (Scientific Reports, 2016):
Where “and” joins values, the source holds several entries; their conditions need not be identical. Identical values can stand only once. Like-named read-outs stand apart in the source and are kept apart here.

Tests used:
[1] = Liver concentrations and tissue pharmacokinetics after intravenous C3G; assay type: in vivo, Wistar rats
Excerpt: (§1) Twenty-two male Wistar rats (Rattus Norvegicus, Harlan Italy S.r.l.), of same age (15 weeks), 293–390 g of body weight, were used. The rats were randomly divided into 5 groups, according to the time that elapsed after intravenous administration of the test compound, and one control group. Each time point was represented by four biological replicates. All animals were allowed to acclimate to the animal facility of the University of Trieste for at least 2 week before studies were initiated. The experimental design was vetted and approved by the bioethical committee of the University of Trieste (internal code 140PAS14), according to the provisions of the European Community Council Directive 2010/63/EU[39]. The methods were carried out in accordance with the approved guidelines. The animals (n = 22) were maintained in cages in a room at 23 ± 2 °C, 50–60% humidity with a 12-hour light-dark cycle. The night before the experiment, food was withdrawn from the cages but water was given ad libitum. On the day of the experiment, the rats were anesthetized with intra-peritoneal administration of tiletamine/zolazepam (1:1, 25 mg/kg body weight) and xylazine (10 mg/kg body weight). During anaesthesia (10 min in all cases), the heart and ventilation rate were monitored. The rats were placed on their backs, with the ventral side up and with the legs spread separately on a thermo-isolated support. The penis was extruded by sliding the prepuce downwards. The dorsal penis vein was then seen along both sides of the penis and exactly 10 min after anaesthesia 0.2 mL PBS without (control group) or with (treated group) 668 nmol cyanidin 3-glucoside (C3G) in PBS was injected using a 24-G hypodermic needle. Then the injection site was pressed with a swab for a few seconds, and the glans was encouraged to retract to prevent further bleeding. One min before sacrificing the rats, sodium heparin (0.1 ml, 500 IU) was injected again into the dorsal penis vein, exposed in the same way. […] Blood draining and excision of the organs were carried out according to the literature. In detail, blood was collected from the neck of rats hold upside down, immediately after their decapitation, which happened at the time points sharp. Exsanguination took 5 seconds; laparotomy and excision of the liver and the kidneys took 5 more seconds. The post-decapitation procedures were standardised. Urine was collected through the urinary bladder with a syringe before decapitation. Kidneys, liver and brain were washed with mQ water, immediately frozen in liquid nitrogen and stored at −80 °C.
(§2) Immediately after sampling, 5 mL of blood were transferred into ice-cold (−20 °C), deoxygenated aqueous 95% methanol in a ratio 1:9 (v/v). The urine was weighted and transferred into ice-cold, deoxygenated aqueous 95% methanol at a ratio of 1:9 (w/v). Frozen kidneys, liver and brain were grounded under cryogenic conditions (−196 °C) to 5 μm particles in a CryoMill (Retsch, Germany), using a single 25 mm i. d. steel ball (30 seconds, 25/sec frequency). The pulverized tissue was rapidly transferred (without thawing) into ice-cold, deoxygenated aqueous 95% methanol at a ratio of 1:9 (w/v). Cinnamic acid-d5, as internal standard, was dissolved in the aqueous methanol at concentration of 0.1 mg/L for the monitoring of the extraction protocol in biofluids and tissues.
(§3) All samples were extracted with an orbital shaker for 10 min at room temperature. The methanol extracts were then centrifuged for 5 min at 3600 rpm at 4 °C, decanted under a stream of nitrogen in 50 mL dark glass vessels and stored at −80 °C. Clean-up of extracted samples in methanol was performed by solid phase extraction (SPE), as previously described. Briefly, 5 mL of extracted samples were evaporated on a rotary evaporator and reconstituted in 10 mL of acidified water. Anthocyanins were extracted by solid-phase adsorption onto a hydrophobic matrix (Sep-Pak C18, 0.35 g, Waters, Milford, MA). […]

[2] = tested on: endothelial cell membrane; design: method as in PMID 22387282; settings: cited from earlier work
[3] = Kidney concentrations and tissue pharmacokinetics after intravenous C3G; assay type: in vivo, Wistar rats
Excerpt: as §1, §2, §3

[4] = Urinary excretion after intravenous C3G; assay type: in vivo, Wistar rats
Excerpt: as §1, §2, §3

[5] = Plasma concentrations and pharmacokinetics after intravenous bolus of C3G (NCA and two-compartment model); assay type: in vivo, Wistar rats; settings: for C0: read-out: C0 (back-extrapolated concentration)
Excerpt: as §1, §2, §3

[6] = 0.25 min after i.v. 668 nmol C3G, mean ± SEM n=4
[7] = male, Wistar, rat, plasma, iv, 668 nmol, non-compartmental analysis
[8] = male, Wistar, rat, plasma, iv, 668 nmol, two-compartment model analysis

OC[C@H]1O[C@@H](Oc2cc3c(O)cc(O)cc3[o+]c2-c2ccc(O)c(O)c2)[C@H](O)[C@@H](O)[C@@H]1O [C3G, Cyanidin-3-O-β-glucoside]
Mean concentration in liver [1, 6]: 56.61 ± 11.79 pmol/g
Mean concentration in liver ([1]; 2 min after i.v. 668 nmol C3G): 19.22 ± 1.99 pmol/g
Mean concentration in liver ([1]; 5 min after i.v. 668 nmol C3G): 20.91 ± 2.61 pmol/g
Mean concentration in liver ([1]; 15 min after i.v. 668 nmol C3G): 11.02 ± 2.24 pmol/g
Mean concentration in liver ([1]; 20 min after i.v. 668 nmol C3G): 5.54 ± 0.33 pmol/g
MTTL (Mean Transit Time in the liver) ([1]; liver): 1.43 min
AUC0-t ([1]; liver, i.v. 668 nmol C3G): 345.3 pmol·min/g and 345.29 pmol·min/g
half-life ([1]; male, Wistar, rat, liver, iv, 668 nmol, read-out: Half-life): 8.15 min
Time frame to pass the endothelial cell membrane [2]: < 1 min
Amounts found in kidneys (range over sampling times) ([3]; 0.25–20 min after i.v. 668 nmol C3G): 0.44 to 1.69 nmol/g
Mean concentration in kidneys [3, 6]: 1.69 ± 0.47 nmol/g
Mean concentration in kidneys ([3]; 2 min after i.v. 668 nmol C3G): 1.40 ± 0.16 nmol/g
Mean concentration in kidneys ([3]; 5 min after i.v. 668 nmol C3G): 0.58 ± 0.08 nmol/g
Mean concentration in kidneys ([3]; 15 min after i.v. 668 nmol C3G): 0.57 ± 0.17 nmol/g
Mean concentration in kidneys ([3]; 20 min after i.v. 668 nmol C3G): 0.44 ± 0.04 nmol/g
MTTK (Mean Transit time in kidneys) ([3]; kidneys): 8.54 min
AUC0-t ([3]; kidneys, i.v. 668 nmol C3G): 14.3 nmol·min/g and 14.32 nmol·min/g
half-life ([3]; male, Wistar, rat, kidney, iv, 668 nmol, kidneys): 11.7 min
Urine concentration ([4]; 0.25 min after i.v. 668 nmol C3G): 0.02 ± 0.01 nmol/g
Urine concentration ([4]; 2 min after i.v. 668 nmol C3G): 2.69 ± 0.82 nmol/g
Urine concentration ([4]; 5 min after i.v. 668 nmol C3G): 20.20 ± 2.61 nmol/g
Injected dose recovered in urine ([4]; 5 min after the injection): 15%
Urine concentration ([4]; 15 min after i.v. 668 nmol C3G): 11.95 ± 6.53 nmol/g
Urine concentration ([4]; 20 min after i.v. 668 nmol C3G): 5.66 ± 1.31 nmol/g
Plasma concentration range with linear plasma/brain correlation ([5]; 0.25–20 min): 19 to 355 nM and 18.78 to 354.84 nM
Time after which half of the compound had been cleared from the plasma ([5]; distribution phase): 18 s
Time window needed to describe complete elimination ([5]; estimate): no more than 1 hour
k el ([5]; male, Wistar, rat, iv, non-compartmental analysis, plasma, i.v. 668 nmol, read-out: λz (first order terminal elimination rate constant) (converted)): 0.00167 s⁻¹
AUC0-t ([5]; male, Wistar, rat, iv, plasma, i.v. 668 nmol C3G, read-out: AUC0–20 (converted)): 0.0194 µM·h
time to complete elimination ([5]; male, Wistar, rat, plasma, intravenous, 668 nmol, estimate, read-out: Time for complete elimination (5–6 half-lives)): 40 to 50 min
C0 ([5]; male, Wistar, rat, plasma, intravenous, 668 nmol, non-compartmental analysis): 429 nM
half-life ([5]; male, Wistar, rat, plasma, intravenous, 668 nmol, plasma, read-out: Mean half-life): < 8 min
C0 ([5]; male, Wistar, rat, plasma, intravenous, 668 nmol, two-compartment model analysis): 550 nM
MRT ([5]; male, Wistar, rat, plasma, intravenous, 668 nmol, two-compartment model analysis, read-out: MRT (converted)): 9.21 min
MRT ([5]; male, Wistar, rat, plasma, intravenous, 668 nmol, two-compartment model analysis, read-out: MRTP (mean residence time in the peripheral space) (converted)): 6.68 min
AUC(0-inf) [5, 7]: 0.0225 µM·h
Cmax [5, 7]: 355 nM
Tmax [5, 7]: 0.25 min
C0 [5, 7]: 429 nM
clearance ([5]; male, Wistar, rat, plasma, iv, 668 nmol, non-compartmental analysis, read-out: CL (total body clearance)): 490 mL/min
MRT ([5]; male, Wistar, rat, plasma, iv, 668 nmol, non-compartmental analysis, read-out: MRT (converted)): 8.72 min
Vd ([5]; male, Wistar, rat, plasma, iv, 668 nmol, non-compartmental analysis, read-out: Vss): 4.31 L
Vd ([5]; male, Wistar, rat, plasma, iv, 668 nmol, non-compartmental analysis, read-out: Vz): 4.92 L
half-life ([5]; male, Wistar, rat, plasma, iv, 668 nmol, non-compartmental analysis, read-out: t1/2 (terminal elimination half-life)): 6.9 min
half-life ([5]; male, Wistar, rat, plasma, iv, 668 nmol, plasma, i.v. 668 nmol C3G, read-out: Half life): 6.9 min
AUC(0-inf) [5, 8]: 0.0222 µM·h
C0 [5, 8]: 550 nM
MRT ([5]; male, Wistar, rat, plasma, iv, 668 nmol, two-compartment model analysis, read-out: MRT (converted)): 9.22 min
Vd ([5]; male, Wistar, rat, plasma, iv, 668 nmol, two-compartment model analysis, read-out: Vss): 4.58 L
half-life ([5]; male, Wistar, rat, plasma, iv, 668 nmol, two-compartment model analysis, read-out: t1/2e (elimination half-life)): 7.41 min
half-life ([5]; male, Wistar, rat, plasma, iv, 668 nmol, two-compartment model analysis, read-out: t1/2d (distribution half-life)): 0.3 min
concentration at 0.25 min ([5]; male, Wistar, rat, plasma, iv, 0.25 min after i.v. 668 nmol C3G, mean ± SEM n=4): 355 ± 54.2 nM
concentration at 2 min ([5]; male, Wistar, rat, plasma, iv, 2 min after i.v. 668 nmol C3G, mean ± SEM n=4): 93.8 ± 9.01 nM
concentration at 5 min ([5]; male, Wistar, rat, plasma, iv, 5 min after i.v. 668 nmol C3G, mean ± SEM n=4): 72.2 ± 5.47 nM
concentration at 15 min ([5]; male, Wistar, rat, plasma, iv, 15 min after i.v. 668 nmol C3G, mean ± SEM n=4): 17.5 ± 2.04 nM
concentration at 20 min ([5]; male, Wistar, rat, plasma, iv, 20 min after i.v. 668 nmol C3G, mean ± SEM n=4): 18.8 ± 4.06 nM
AUMC ([5]; non-compartmental analysis): 11789.96 nM*min^2
Residual amount eliminated per min ([5]; per min): ca. 10%
Time for distribution to go to 50% completion ([5]; rat, in vivo): ca. 8 s
Fraction distributed beyond plasma at distribution equilibrium ([5]; steady state): 99.76%
Fraction present in plasma at distribution equilibrium ([5]; steady state): 0.24%
Share of MRT spent in the peripheral space ([5]; two-compartment model): 73.51%
AUMC ([5]; two-compartment model analysis): 12394.67 nM*min^2
CL (total body clearance) ([5]; two-compartment model analysis): 0.49 L/min
FAUC (AUC peripheral bioavailability, MRTP/MRTC) ([5]; two-compartment model analysis): 2.77
IC (number of circulations, MRTP/MTTP) ([5]; two-compartment model analysis): 3.55
MTT (mean transit time; MTTC, mean duration of one visit in central compartment) ([5]; two-compartment model analysis): 0.54 min
MTTp (mean transit time in the peripheral space) ([5]; two-compartment model analysis): 1.91 min
V1 (volume of central compartment) ([5]; two-compartment model analysis): 1.21 L
V2 (volume of peripheral compartment) ([5]; two-compartment model analysis): 3.36 L
a (T0 intercept of distribution kinetics) ([5]; two-compartment model analysis): 442.79 nM
b (T0 intercept of elimination phase) ([5]; two-compartment model analysis): 107.68 nM
k10 ([5]; two-compartment model analysis): 0.41 min^–1
k12 ([5]; two-compartment model analysis): 1.45 min^–1
k21 ([5]; two-compartment model analysis): 0.52 min^–1
α (slope factor) ([5]; two-compartment model analysis): 2.29 min^–1
β (slope factor) ([5]; two-compartment model analysis): 0.09 min^–1
